Several values for one entry are separate records, joined by “and”; a condition that tells them apart may be missing. Equal entries are not always repeated. Structures can show the parent of a compound that is named as a salt. Where two headings read alike, the source gives them in different places.

This assay addresses NANOLUC® enzyme (Oplophorus gracilirostris, UniProt Q9GV45, A31E/A60N/A81I/F95D/I117V/K70R/L54V/L99Q/M102K/N193R/P142E/Q151K/Q38R/Q45L/V71I/Y165I). The assay is described as follows: Inhibitor IC50 determination (NANOLUC enzyme, furimazine). In kind it is biochemical. The settings on record: 0.4 ng/ml NANOLUC enzyme, final furimazine 10 uM (at Km). The method, then: The following example provides the IC50 values for the compounds disclosed herein. See Table 5 NANOLUC® enzyme was diluted to 0.4 ng/ml in CO2 independent media+10% FBS to make the detection reagent. A 3× dilution series of each inhibitor was then made in the detection reagent. A “no inhibitor” control was also made for each sample. 50 ul of each inhibitor dilution was mixed with 50 ul of NanoGlo buffer containing 20 uM furimazine. (Final furimazine concentration is 10 uM which is at Km.), and luminescence measured. Each sample was normalized to the “no inhibitor” control. The […] values were then determined using GraphPad Prism (log [inhibitor] vs. normalized response).

Sequence of NANOLUC® enzyme (Q9GV45 28-196 with tags or gaps with the stated changes limits assumed): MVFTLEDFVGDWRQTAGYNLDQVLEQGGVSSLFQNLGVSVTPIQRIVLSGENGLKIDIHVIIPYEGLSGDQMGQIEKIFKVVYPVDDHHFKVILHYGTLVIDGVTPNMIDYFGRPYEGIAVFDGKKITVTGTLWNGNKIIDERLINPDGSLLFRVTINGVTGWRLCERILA

As a reminder, the IC50 is the point on the concentration scale where inhibition reaches its midpoint. In the case of `CCc1cccc(N(CC)C(=O)Cn2c(C(=O)N[C@H]3CC[C@H](C(=O)NCCCCCCO)CC3)cc3ccccc32)c1` [JRW-0430, 1-(2-(Ethyl(3-ethylphenyl)amino)-2-oxoethyl)-N-(trans-4-((6-hydroxyhexyl)carbamoyl)cyclohexyl)-1H-indole-2-carboxamide], the IC50 (IC50 (uM)) is 0.0021 µM.
The same measure, in the same setting: the figure for `CCN(C(=O)Cn1c(C(=O)N[C@H]2CC[C@H](C(=O)OC)CC2)cc2sccc21)c1ccc(C)cc1` [JRW-0334, Methyl trans-4-(4-(2-(ethyl(p-tolyl)amino)-2-oxoethyl)-4H-thieno[3,2-b]pyrrole-5-carboxamido)cyclohexane-1-carboxylate] is 1.3 µM.
In turn, `CCN(C(=O)Cn1c(C(=O)NC[C@H]2CC[C@H](C(=O)NCCCCCC(=O)O)CC2)cc2sccc21)c1cccc(C)c1` [JRW-0268, 6-(trans-4-((4-(2-(ethyl(m-tolyl)amino)-2-oxoethyl)-4H-thieno[3,2-b]pyrrole-5-carboxamido)methyl)cyclohexane-1-carboxamido)hexanoic acid] returned a half-maximal inhibitory concentration (IC50) (IC50 (uM)) of 4.3 µM.
As to `CCN(C(=O)Cn1c(C(=O)N[C@H]2CC[C@H](C(=O)OC)CC2)cc2sccc21)c1ccccc1` [JRW-0318, Methyl trans-4-(4-(2-(ethyl(phenyl)amino)-2-oxoethyl)-4H-thieno[3,2-b]pyrrole-5-carboxamido)cyclohexane-1-carboxylate], the concentration for half-maximal inhibition (IC50) (IC50 (uM)) is 0.11 µM.
`CCN(C(=O)Cn1c(C(=O)N[C@H]2CC[C@H](C(=O)OC)CC2)cc2sccc21)c1ccc(CO)cc1` [JRW-0335, Methyl trans-4-(4-(2-(ethyl(4-(hydroxymethyl)phenyl)amino)-2-oxoethyl)-4H-thieno[3,2-b]pyrrole-5-carboxamido)cyclohexane-1-carboxylate] displayed a concentration for half-maximal inhibition (IC50) (IC50 (uM)) of 1.9 µM.
Under “IC50 (uM)”, `CCc1cccc(N(CC)C(=O)Cn2c(C(=O)N[C@H]3CC[C@H](C(=O)OC)CC3)cc3sccc32)c1` [JRW-0326, Methyl trans-4-(4-(2-(ethyl(3-ethylphenyl)amino)-2-oxoethyl)-4H-thieno[3,2-b]pyrrole-5-carboxamido)cyclohexane-1-carboxylate] showed an IC50 of 0.0039 µM.
On the same count and under the same terms, the figure for `CCN(C(=O)Cn1c(C(=O)Nc2ccccc2)cc2sccc21)c1cccc(C)c1` [JRW-0143, 4-(2-(ethyl(m-tolyl)amino)-2-oxoethyl)-N-phenyl-4H-thieno[3,2-b]pyrrole-5-carboxamide] is 2.8 µM and 2.6 µM.
`CCN(C(=O)Cn1c(C(=O)N2CCCCC2)cc2sccc21)c1cccc(C)c1` [JRW-0009, N-ethyl-2-(5-(piperidine-1-carbonyl)-4H-thieno[3,2-b]pyrrol-4-yl)-N-(m-tolyl)acetamide] showed an IC50 (IC50 (uM)) of 2.7 µM.
Compound `CCN(C(=O)Cn1c(C(=O)N2CCCC2)cc2sccc21)c1cccc(C)c1` [JRW-0008, N-ethyl-2-(5-(pyrrolidine-1-carbonyl)-4H-thieno[3,2-b]pyrrol-4-yl)-N-(m-tolyl)acetamide] registered a concentration for half-maximal inhibition (IC50) (IC50 (uM)) of 1.1 µM.
On the same count and under the same terms, next, `CCN(C(=O)Cn1c(C(=O)NCCCCCCCC(=O)O)cc2sccc21)c1cccc(C)c1` [JRW-0198, 8-(4-(2-(ethyl(m-tolyl)amino)-2-oxoethyl)-4H-thieno[3,2-b]pyrrole-5-carboxamido)octanoic acid]: 1 µM; `CCN(C(=O)Cn1c(C(=O)N[C@H]2CC[C@H](C(=O)NCCN(C)C)CC2)cc2sccc21)c1cccc(C)c1` [JRW-0044, N-(trans-4-((2-(dimethylamino)ethyl)carbamoyl)cyclohexyl)-4-(2-(ethyl(m-tolyl)amino)-2-oxoethyl)-4H-thieno[3,2-b]pyrrole-5-carboxamide]: 16.8 µM; `CCN(C(=O)Cn1c(C(=O)N[C@H]2CC[C@H](C(=O)OC)CC2)cc2occc21)c1cccc(C)c1` [JRW-360, Methyl trans-4-(4-(2-(ethyl(m-tolyl)amino)-2-oxoethyl)-4H-furo[3,2-b]pyrrole-5-carboxamido)cyclohexane-1-carboxylate]: 0.61 µM.
The compound `CCN(C(=O)Cn1c(C(=O)Nc2cccc(C(=O)OC)c2)cc2sccc21)c1cccc(C)c1` [JRW-0151, methyl 3-(4-(2-(ethyl(m-tolyl)amino)-2-oxoethyl)-4H-thieno[3,2-b]pyrrole-5-carboxamido)benzoate] showed a half-inhibitory concentration (IC50) (IC50 (uM)) of 7 µM.
Turning to `CCN(C(=O)Cn1cccc1C(=O)N[C@H]1CC[C@H](C(=O)OC)CC1)c1cccc(C)c1` [JRW-0456, Methyl trans-4-(1-(2-(ethyl(m-tolyl)amino)-2-oxoethyl)-1H-pyrrole-2-carboxamido)cyclohexane-1-carboxylate], the IC50 (IC50 (uM)) was found to be 7.4 µM.
Still for that read-out and setting: next, `COC(=O)[C@H]1CC[C@H](NC(=O)c2cc3sccc3n2CC(=O)N2CCCc3cc(C)ccc32)CC1` [JRW-0331, Methyl trans-4-(4-(2-(6-methyl-3,4-dihydroquinolin-1(2H)-yl)-2-oxoethyl)-4H-thieno[3,2-b]pyrrole-5-carboxamido)cyclohexane-1-carboxylate]: 16.9 µM.
Compound `CCN(C(=O)Cn1c(C(=O)N[C@H]2CC[C@H](C(=O)OC)CC2)cc2ccsc21)c1cccc(C)c1` [JRW-0463, Methyl trans-4-(6-(2-(ethyl(m-tolyl)amino)-2-oxoethyl)-6H-thieno[2,3-b]pyrrole-5-carboxamido)cyclohexane-1-carboxylate] had a half-inhibitory concentration (IC50) (IC50 (uM)) of 0.71 µM.
On the same count and under the same terms, next, `CCN(C(=O)Cn1c(C(=O)N[C@H]2CC[C@H](C(N)=O)CC2)cc2sccc21)c1cccc(C)c1` [JRW-0052, N-(trans-4-carbamoylcyclohexyl)-4-(2-(ethyl(m-tolyl)amino)-2-oxoethyl)-4H-thieno[3,2-b]pyrrole-5-carboxamide]: 1.3 µM.
Under “IC50 (uM)”, `CCCCCCN(C(=O)Cn1c(C(=O)NC2CCCCC2)cc2sccc21)c1cccc(C)c1` [JRW-0148, N-cyclohexyl-4-(2-(hexyl(m-tolyl)amino)-2-oxoethyl)-4H-thieno[3,2-b]pyrrole-5-carboxamide] displayed an IC50 of 5.3 µM.
Same read-out and setting: next, `CCN(C(=O)Cn1c(C(=O)N[C@H]2CC[C@H](C(=O)NCCCCCCCC(=O)O)CC2)cc2sccc21)c1cccc(C)c1` [JRW-0188, 8-(trans-4-(4-(2-(ethyl(m-tolyl)amino)-2-oxoethyl)-4H-thieno[3,2-b]pyrrole-5-carboxamido)cyclohexane-1-carboxamido)octanoic acid]: 0.022 µM; `CCN(C(=O)Cn1c(C(=O)N[C@H]2CC[C@H](C(=O)NCCCCCCN)CC2)cc2sccc21)c1cccc(C)c1` [JRW-0241, N-(trans-4-((6-aminohexyl)carbamoyl)cyclohexyl)-4-(2-(ethyl(m-tolyl)amino)-2-oxoethyl)-4H-thieno[3,2-b]pyrrole-5-carboxamide hydrochloride]: 0.063 µM.
On the same count and under the same terms, the figure for `CCN(C(=O)Cn1c(C(=O)N[C@H]2CC[C@H](C(=O)OC)CC2)cc2sccc21)c1cccc(C(C)C)c1` [JRW-0460, Methyl trans-4-(4-(2-(ethyl(3-isopropylphenyl)amino)-2-oxoethyl)-4H-thieno[3,2-b]pyrrole-5-carboxamido)cyclohexane-1-carboxylate] is 0.12 µM.
On the same count and under the same terms, next, `CCN(C(=O)Cn1c(C(=O)N[C@H]2CC[C@@H](C(=O)NCCCCCC(=O)O)CC2)cc2sccc21)c1cccc(C)c1` [JRW-0264, 6-(cis-4-(4-(2-(ethyl(m-tolyl)amino)-2-oxoethyl)-4H-thieno[3,2-b]pyrrole-5-carboxamido)cyclohexane-1-carboxamido)hexanoic acid]: 0.24 µM.
In the case of `CCc1cccc(N(CC)C(=O)Cn2c(C(=O)N[C@H]3CC[C@H](C(=O)NCCCCCCS(=O)(=O)O)CC3)cc3sccc32)c1` [JRW-0432, Sodium 6-(trans-4-(4-(2-(ethyl(3-ethylphenyl)amino)-2-oxoethyl)-4H-thieno[3,2-b]pyrrole-5-carboxamido)cyclohexane-1-carboxamido)hexane-1-sulfonate], for the setting “IC50 (uM)”, the IC50 was 0.0031 µM.
The same measure, in the same setting: the figure for `CCN(C(=O)Cn1c(C(=O)N[C@H]2CC[C@H](C(=O)OC)CC2)cc2sccc21)c1ccccc1C` [JRW-0330, Methyl trans-4-(4-(2-(ethyl(o-tolyl)amino)-2-oxoethyl)-4H-thieno[3,2-b]pyrrole-5-carboxamido)cyclohexane-1-carboxylate] is 0.7 µM; for `CCOC(=O)Cc1ccc(NC(=O)c2cc3sccc3n2CC(=O)N(CC)c2cccc(C)c2)cc1` [JRW-0152, ethyl 2-(4-(4-(2-(ethyl(m-tolyl)amino)-2-oxoethyl)-4H-thieno[3,2-b]pyrrole-5-carboxamido)phenyl)acetate] it is 4.3 µM; for `CCc1cccc(N(CC)C(=O)Cn2c(C(=O)N[C@H]3CC[C@H](C(=O)NCCCCCCO)CC3)cc3sccc32)c1` [JRW-0429, 4-(2-(Ethyl(3-ethylphenyl)amino)-2-oxoethyl)-N-(trans-4-((6-hydroxyhexyl)carbamoyl)cyclohexyl)-4H-thieno[3,2-b]pyrrole-5-carboxamide] it is 0.0021 µM.
The same measure, in the same setting: the figure for `CCN(C(=O)Cn1c(C(=O)N[C@H]2CC[C@H](C(=O)O)CC2)cc2sccc21)c1cccc(C)c1` [JRW-0034, trans-4-(4-(2-(ethyl(m-tolyl)amino)-2-oxoethyl)-4H-thieno[3,2-b]pyrrole-5-carboxamido)cyclohexane-1-carboxylic acid] is 0.059 µM.
For the compound “N-(trans-4-((6-(3′,6′-dihydroxy-3-oxo-3H-spiro[isobenzofuran-1,9′-xanthene]-5(6)-carboxamido)hexyl)carbamoyl)cyclohexyl)-4-(2-(ethyl(m-tolyl)amino)-2-oxoethyl)-4H-thieno[3,2-b]pyrrole-5-carboxamide [JRW-0200]”, for the setting “read-out: IC50”, the concentration for half-maximal inhibition (IC50) was 0.078 µM.

(Values after patent US10513694B2, “Thienopyrrole compounds and uses thereof” (PROMEGA CORPORATION, priority 2015, dated 2019).)
